From patent US10028961B2, “Therapeutically active compounds and their methods of use” (AGIOS PHARMACEUTICALS, INC., priority 2013, dated 2018) come the findings set out here.

IDH1 wt/IDH1 R132H heterodimer, sequence (O75874 whole entry R132H): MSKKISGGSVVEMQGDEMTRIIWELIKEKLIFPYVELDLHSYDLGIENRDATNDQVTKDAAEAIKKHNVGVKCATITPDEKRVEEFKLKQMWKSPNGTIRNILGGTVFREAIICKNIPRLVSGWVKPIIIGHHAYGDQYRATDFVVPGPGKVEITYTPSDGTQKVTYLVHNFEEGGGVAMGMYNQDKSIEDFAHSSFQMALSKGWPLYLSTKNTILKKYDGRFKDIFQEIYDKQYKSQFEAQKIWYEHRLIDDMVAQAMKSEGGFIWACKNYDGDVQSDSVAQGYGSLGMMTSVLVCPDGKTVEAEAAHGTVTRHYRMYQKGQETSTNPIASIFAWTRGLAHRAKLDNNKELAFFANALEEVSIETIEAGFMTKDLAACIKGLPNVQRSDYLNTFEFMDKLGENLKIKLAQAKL
IDH1 wt/IDH1 R132H heterodimer, sequence (O75874 whole entry, stated change not applied): as the sequence (O75874 whole entry R132H) above, with H132R counted along it

The first test has as its target IDH1 wt/IDH1 R132H heterodimer (Homo sapiens (Human), UniProt O75874, R132H). The experiment in a line: In vitro assay for IDH1m R132H inhibitors, IDH1 wt/IDH1 R132H heterodimer, NADPH depletion (diaphorase/resazurin). The format is biochemical. Conditions: IDH1 wt/IDH1 R132H heterodimer, 300 μM NADP (saturated); read-out: IDH1 wt/R132H NADPH/NADP IC50 saturated. The method, then:
The following describes the experimental procedures that can be used to obtain data on columns 2 and 4 of Table 4 and column 2 of Table 5.
In the primary reaction, the reduction of α-KG acid to 2-HG is accompanied by a concomitant oxidation of NADPH to NADP. The amount of NADPH remaining at the end of the reaction time is measured in a secondary diaphorase/resazurin reaction in which the NADPH is consumed in a 1:1 molar ratio with the conversion of resazurin to the highly fluorescent resorufin.
The mixture of compound, enzyme, and cofactor is pre-incubated at room temperature for 1 hr prior to the addition of alpha-ketoglutarate. To perform the secondary reaction, 10 uL of 1× buffer containing 36 μg/ml diaphorase and […] resazurin is added to the primary reaction and incubated for a further 5 minutes at 25° C. […] Compounds or compound dilutions are prepared in 100% DMSO concentration and diluted 1:50 into the final reaction. […] IC50s are determined.
IDH1 or IDH2 wildtype (wt) and mutant heterodimers are expressed and purified by methods known in the art. […] Co-expression of IDH1wt-his and IDH1R132C-flag is carried out in sf9 insect cells. Cells (25 g) are resuspended in 250 ml of 50 mM Tirs, 500 mM NaCl, pH7.4, at 4° C. with stirring. Cells are disrupted with 4 passes through an M-Y110 Micro fluidizer (Microfluidics) set to 500 psi, and then centrifuged at 22,000 rcf for 20 min at 4° C. The supernatant is harvested and loaded at 15 cm/h on a Histrap FF 5*1 ml column (GE) which is equilibrated with 50 mM Tirs, 500 mM NaCl, pH7.4. Host cell contaminants are removed by washing the column with equilibration buffer followed by equilibration buffer containing 20 mM imidazole and 60 mM imidazole to baseline. IDH1wt-his homodimer and IDH1wt-his/IDH1R132C-flag are eluted by equilibration buffer containing 250 mM imidazole. Fractions eluted by 250 mM imidazole are pooled together and loaded at 15 cm/h onto a column pre-packed with 10 ml ANTI-FLAG® M2 Affinity Gel (Sigma), the column is equilibrated with 50 mM Tris, 500 mM NaCl, pH7.4. After washing with equilibration buffer, IDH1wt-his/IDH1R132C-flag heterodimer is eluted by equilibration buffer containing flag peptide (0.2 mg/ml). Aliquots of IDH1wt-his/IDH1R132C-flag are flash frozen in liquid N2 and stored at −80° C. Same conditions are used for the purification of IDH1wt-his/IDH1R132H-flag.
On the technique in general: Resazurin is reduced to fluorescent resorufin, in cell work by metabolically active cells.
Turning to `N#CC1(c2cc(Nc3nc(NCC4CC4(F)F)nc(-c4cccc(C(F)(F)F)n4)n3)ccn2)CC1` (centres unmarked) [Compound 362], the IC50 is 0.05 to 0.1 µM.

Still in this test, the particulars now being: IDH1 wt/R132H heterodimer, NADPH/NADP, not saturated.
Take `C[C@@H](Nc1nc(N[C@H](C)C2CC2)nc(-c2ccc(Cl)cc2)n1)C1CC1` [Compound 65]: the “IDH1 wt/R132H NADPH/NADP IC50 not saturated” value is “No Fit”.

The test is the same for the next values; noted with them: IDH1 wt/R132H heterodimer, NADPH/NADP, not saturated; read-out: IDH1 wt/R132H NADPH/NADP IC50 not saturated.
`Fc1ccc([C@H]2C[C@H](Nc3nc(N[C@H]4C[C@H](c5ccc(F)cc5)C4)nc(-c4cccc(C(F)(F)F)n4)n3)C2)cc1` [Compound 299]: the IC50 is 0.1 to 1 µM.
As to `Cc1nc(-c2nc(NC3CCC(F)(F)CC3)nc(NC3CCC(F)(F)CC3)n2)co1` [Compound 324], the IC50 was greater than 1 µM.
`Cn1ccc(-c2nc(NC3CCC(F)(F)CC3)nc(NC3CCC(F)(F)CC3)n2)n1` [Compound 304]: the IC50 was greater than 1 µM.
For `C[C@@H](Nc1nc(N[C@H](C)C2CC2)nc(-c2ccccc2Cl)n1)C1CC1` [Compound 94], the IC50 was greater than 1 µM.
`COc1cccc(-c2nc(N[C@H](C)C3CC3)nc(N[C@H](C)C3CC3)n2)n1` [Compound 294]: the IC50 is 0.1 to 1 µM.
The same measure, in the same setting: the figure for `Cc1cnn(-c2nc(N[C@H](C)C3CC3)nc(N[C@H](C)C3CC3)n2)c1` [Compound 312] is greater than 1 µM; for `OC1CCCC1Nc1nc(NC2CCCC2O)nc(-c2cccc(Cl)n2)n1` (centres unmarked) [Compound 290] it is 0.1 to 1 µM; for `C#CCNc1nc(N[C@H](C)C2CC2)nc(-c2cccc(C(F)(F)F)n2)n1` [Compound 284] it is 0.1 to 1 µM.
Still for that read-out and setting: the figure for `Cn1c(Nc2nc(NC3CCC(F)(F)C3)nc(-c3cccc(C(F)(F)F)n3)n2)cc2ccccc21` (centres unmarked) [Compound 316] is greater than 1 µM.
As to `C[C@@H](Nc1nc(N[C@H](C)C2CC2)nc(-c2ccccn2)n1)C1CC1` [Compound 93], the IC50 is greater than 1 µM.
Same read-out and setting: the same measure for `Cc1cccc(-c2nc(NC3CCC(F)(F)CC3)nc(NC3CCC(F)(F)CC3)n2)n1` [Compound 282]: 0.1 to 1 µM; for `CC(CN1CCCCC1)Nc1nc(N[C@H](C)C2CC2)nc(-c2cccc(C(F)(F)F)n2)n1` (some centres unmarked) [Compound 331]: greater than 1 µM.
Still for that read-out and setting: the figure for `COCC(COC)Nc1nc(N[C@H](C)C2CC2)nc(-c2cccc(C(F)(F)F)n2)n1` [Compound 63] is 0.05 to 0.1 µM.
On the same count and under the same terms, the same measure for `C[C@H](CO)Nc1nc(N[C@H](C)C2CC2)nc(-c2cccc(C(F)(F)F)n2)n1` [Compound 281]: 0.1 to 1 µM.
On to `COCCOCC(C)Nc1nc(N[C@H](C)C2CC2)nc(-c2cccc(C(F)(F)F)n2)n1` (some centres unmarked) [Compound 295], for which the IC50 lay in the range of 0.1 to 1 µM.
Still for that read-out and setting: the figure for `C[C@@H](Nc1nc(N[C@H](C)C2CC2)nc(-c2cccc(Cl)c2)n1)C1CC1` [Compound 64] is 0.05 to 0.1 µM.
The same measure, in the same setting: the same measure for `C[C@@H](Nc1nc(N[C@H](C)C2CC2)nc(-c2ccncc2)n1)C1CC1` [Compound 95]: greater than 1 µM; for `C[C@@H](Nc1nc(N[C@H](C)C2CC2)nc(-c2cccc(C(N)=O)n2)n1)C1CC1` [Compound 307]: greater than 1 µM.
The same measure, in the same setting: the figure for `C[C@@H](Nc1nc(N[C@H](C)C2CC2)nc(-c2cncc(C(F)(F)F)c2)n1)C1CC1` [Compound 300] is 0.1 to 1 µM; for `FC1(F)CCC(Nc2nc(NC3CCC(F)(F)CC3)nc(-c3ccn[nH]3)n2)CC1` [Compound 330] it is greater than 1 µM; for `CC(C)Nc1nc(NC2CCCCC2)nc(-c2ccncc2)n1` [Compound 62] it is 0.05 to 0.1 µM.
Consider `C[C@@H](Nc1nc(N[C@H](C)C2CC2)nc(-c2cccc(OC(F)(F)F)c2)n1)C1CC1` [Compound 322], for which the IC50 was greater than 1 µM.
The same measure, in the same setting: the same measure for `C[C@@H](Nc1nc(NCC(C)(C)C(N)=O)nc(-c2cccc(C(F)(F)F)n2)n1)C1CC1` [Compound 303]: greater than 1 µM; for `C[C@@H](Nc1nc(N[C@H](C)C2CC2)nc(-c2cccc(C#N)c2)n1)C1CC1` [Compound 320]: greater than 1 µM; for `C[C@@H](Nc1nc(N[C@H](C)C2CC2)nc(-c2ccnc(C(F)(F)F)c2)n1)C1CC1` [Compound 323]: greater than 1 µM.
The same measure, in the same setting: the same measure for `C[C@@H](Nc1nc(N[C@H](C)C2CC2)nc(-c2cccc(C#N)n2)n1)C1CC1` [Compound 269]: 0.1 to 1 µM; for `C[C@@H](Nc1nc(NC2Cc3ccccc3C2)nc(-c2cccc(C(F)(F)F)n2)n1)C1CC1` [Compound 60]: less than 0.05 µM; for `CN1CCC(Nc2nc(NC3CCC(F)(F)C3)nc(-c3cccc(C(F)(F)F)n3)n2)C1` (centres unmarked) [Compound 96]: greater than 1 µM.
Regarding `C=Cc1cccc(-c2nc(N[C@H](C)C3CC3)nc(N[C@H](C)C3CC3)n2)n1` [Compound 240], the IC50 was less than 0.05 µM.
Turning to `C[C@@H](Nc1nc(N[C@H](C)C2CC2)nc(-c2cccc(O)n2)n1)C1CC1` [Compound 327], the IC50 was greater than 1 µM.
The same measure, in the same setting: the figure for `Fc1ccc(N2CC(Nc3nc(NC4CCC(F)(F)C4)nc(-c4cccc(C(F)(F)F)n4)n3)C2)cc1` (centres unmarked) [Compound 313] is greater than 1 µM.
On the same count and under the same terms, the same measure for `FC1(F)CCC(Nc2nc(Nc3cc4ccccc4[nH]3)nc(-c3cccc(C(F)(F)F)n3)n2)C1` (centres unmarked) [Compound 291]: 0.1 to 1 µM.
With `COC(=O)N1CCC(Nc2nc(NC3CCC(F)(F)C3)nc(-c3cccc(C(F)(F)F)n3)n2)C1` (centres unmarked) [Compound 59], the IC50 was less than 0.05 µM.
On the same count and under the same terms, the figure for `COC(=O)c1cccc(-c2nc(N[C@H](C)C3CC3)nc(N[C@H](C)C3CC3)n2)n1` [Compound 310] is greater than 1 µM.
In the case of `COC(=O)CCNc1nc(N[C@H](C)C2CC2)nc(-c2cccc(C(F)(F)F)n2)n1` [Compound 286], the IC50 was 0.1 to 1 µM.
For the compound `Cc1cc(-c2nc(NC3CCC(F)(F)CC3)nc(NC3CCC(F)(F)CC3)n2)no1` [Compound 329], the IC50 was greater than 1 µM.
Same read-out and setting: the same measure for `COCCC(C)Nc1nc(N[C@H](C)C2CC2)nc(-c2cccc(C(F)(F)F)n2)n1` (some centres unmarked) [Compound 233]: less than 0.05 µM; for `CC(CN1CCOCC1)Nc1nc(N[C@H](C)C2CC2)nc(-c2cccc(C(F)(F)F)n2)n1` (some centres unmarked) [Compound 306]: greater than 1 µM.
The same measure, in the same setting: the figure for `FC1(F)CCC(Nc2nc(NC3CCC(F)(F)CC3)nc(-c3cc(Cl)ccn3)n2)CC1` [Compound 314] is greater than 1 µM.

The target of another test is IDH2 R140Q (Homo sapiens (Human), UniProt P48735, R140Q). The test is described as follows: In vitro assay for IDH2m R140Q inhibitors, cofactor depletion assay. It counts as biochemical. Conditions: IDH2 R140Q enzyme. An excerpt: The following describes the experimental procedures used to obtain data on column 7 of Table 4.
IDH2 R140Q, sequence (P48735 40-452 R140Q): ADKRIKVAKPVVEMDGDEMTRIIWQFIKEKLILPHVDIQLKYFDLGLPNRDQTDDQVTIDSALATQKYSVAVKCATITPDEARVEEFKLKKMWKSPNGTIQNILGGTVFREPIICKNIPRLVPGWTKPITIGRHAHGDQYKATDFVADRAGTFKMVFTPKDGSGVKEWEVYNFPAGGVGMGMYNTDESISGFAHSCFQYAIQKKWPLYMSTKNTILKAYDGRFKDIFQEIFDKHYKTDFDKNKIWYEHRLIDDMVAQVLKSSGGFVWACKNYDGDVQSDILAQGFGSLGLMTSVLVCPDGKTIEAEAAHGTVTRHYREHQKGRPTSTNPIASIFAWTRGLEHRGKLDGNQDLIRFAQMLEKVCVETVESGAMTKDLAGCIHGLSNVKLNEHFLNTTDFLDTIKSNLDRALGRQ
The reaction is terminated by the addition of a second enzyme, diaphorase, and a corresponding substrate, resazurin. Diaphorase reduces resazurin to the highly fluorescent resorufin with the concomitant oxidation of NADPH to NADP, both halting the IDH2 reaction by depleting the available cofactor pool and facilitating quantitation of the amount of cofactor remaining after a specific time period through quantitative production of an easily detected fluorophore.
The test compound is then incubated for one hour at room temperature with the enzyme; before starting the IDH2 reaction with the addition of 10 μl of substrate mix containing 4 μM NADPH and 1.6 mM α-KG in the buffer described above. After a further 16 hours of incubation at room temperature, the reaction is halted and the remaining NADPH measured through conversion of resazurin to resorufin by the addition of 25 μl Stop Mix (36 μg/ml diaphorase enzyme and 60 μM resazurin; in buffer).
Compound `CC(C)CNc1nc(NC2CCOCC2)nc(-c2cccc(C(F)(F)F)n2)n1` [Compound 75] gave an IC50 of 0.05 to 0.1 µM.
On the same count and under the same terms, the same measure for `Clc1cccc(-c2nc(NC3[C@H]4COC[C@@H]34)nc(NC3[C@H]4COC[C@@H]34)n2)n1` (stereo partly drawn) [Compound 72, N^2,N^4-di((1R,5S)-3-oxabicyclo[3.1.0]hexan-6-yl)-6-(6-chloropyridin-2-yl)-1,3,5-triazine-2,4-diamine]: greater than 1 µM; for `N#CC1(c2cc(Nc3nc(NCC4CC4(F)F)nc(-c4cccc(C(F)(F)F)n4)n3)ccn2)CC1` (centres unmarked) [Compound 362]: less than 0.05 µM; for `FC1(F)CC2(CC(Nc3nc(Nc4ccnc(C(F)(F)F)c4)nc(-c4cccc(C(F)(F)F)n4)n3)C2)C1` [Compound 257]: less than 0.05 µM.
Same read-out and setting: the figure for `CN1CCC(Nc2nc(NC3CCC(F)(F)C3)nc(-c3cccc(C(F)(F)F)n3)n2)C1` (centres unmarked) [Compound 326] is greater than 1 µM.

A further test concerns U87MG pLVX-IDH2 R140Q-neo cells. The experiment in a line: U87MG pLVX-IDH2 R140Q-neo cell based assay, 2-HG by LC-MS. Conditions: Homo sapiens, U-87 MG.
For the compound `CC(C)CNc1nc(NC2CCOCC2)nc(-c2cccc(C(F)(F)F)n2)n1` [Compound 75], the IC50 was less than 0.05 µM.
`Clc1cccc(-c2nc(NC3[C@H]4COC[C@@H]34)nc(NC3[C@H]4COC[C@@H]34)n2)n1` (stereo partly drawn) [Compound 72, N^2,N^4-di((1R,5S)-3-oxabicyclo[3.1.0]hexan-6-yl)-6-(6-chloropyridin-2-yl)-1,3,5-triazine-2,4-diamine]: the IC50 lay within 0.05 to 0.1 µM.
As to `FC1(F)CC2(CC(Nc3nc(Nc4ccnc(C(F)(F)F)c4)nc(-c4cccc(C(F)(F)F)n4)n3)C2)C1` [Compound 257], the IC50 is less than 0.05 µM.
For the compound `CN1CCC(Nc2nc(NC3CCC(F)(F)C3)nc(-c3cccc(C(F)(F)F)n3)n2)C1` (centres unmarked) [Compound 326], the IC50 is greater than 1 µM.
In turn, `c1ccc(-c2nc(NC3C4COCC43)nc(NC3C4COCC43)n2)cc1` (centres unmarked) [Compound 71] displayed an IC50 of 0.05 to 0.1 µM.
Same read-out and setting: the figure for `CC(C)Nc1nc(NC2CCCOC2)nc(-c2ccccc2)n1` (centres unmarked) [Compound 69, N^2-isopropyl-6-phenyl-N^4-(tetrahydro-2H-pyran-3-yl)-1,3,5-triazine-2,4-diamine] is 0.1 to 1 µM; for `C=CCCNc1nc(NCCC=C)nc(-c2ccccc2)n1` [Compound 70] it is 0.05 to 0.1 µM.
